ChEMBL document CHEMBL1201862, “PubChem BioAssay data set” (2004)
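In this assay, cells in 96-well plates receive the compound at five concentrations for 48 hours. Endpoints are linearly interpolated between the surrounding concentrations. At the GI50, growth is halved.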 The source made the active and inactive calls. Rule as the data show it: active = GI50 up to about 1.1 µM and inactive = higher.

Key:
Assay in all cases: inhibition of tumour cell growth, NCI panel, 48 h
BT-549 = test system: BT-549
DLD-1 = test system: DLD-1
DMS-273 = test system: DMS-273
HOP-18 = test system: HOP-18
KM-20L2 = test system: KM-20L2
SNB-78 = test system: SNB-78
XF498 = test system: XF498
M19-MEL = test system: M19-MEL
RXF 631 = test system: RXF 631

Q: `COc1cccc2c1C(=O)c1c(O)c3c(c(O)c1C2=O)C[C@@](O)(C(=O)CO)CC3OC1CC(N)C(OC2CCCCO2)C(C)O1` (stereo not given in full) was tested. Which GI50 (BT-549) did it give?
A: 0.176 µM (active)

Q: And the GI50 (DLD-1)?
A: 1.82 µM (inactive)

Q: And the GI50 (DMS-273)?
A: 0.308 µM (active)

Q: And the GI50 (HOP-18)?
A: 0.0977 µM (active)

Q: What about the GI50 (KM-20L2) of the same molecule?
A: 0.561 µM (active)

Q: And the GI50 (SNB-78)?
A: 1.5 µM (inactive)

Q: What about the GI50 (XF498) of the same molecule?
A: 0.54 µM (active)

Q: For `C/C=C1/C(=O)O[C@]23C=C[C@@H]4C(C(=O)OC)=CO[C@H](O[C@@H]12)[C@@H]43` [PLUMERICIN], which GI50 (DLD-1) is on record?
A: 0.432 µM (active)

Q: And the GI50 (DMS-273)?
A: 2.32 µM (inactive)

Q: And the GI50 (HOP-18)?
A: 4.67 µM (inactive)

Q: What about the GI50 (KM-20L2) of the same molecule?
A: 2.17 µM (inactive)

Q: And the GI50 (M19-MEL)?
A: 0.726 µM (active)

Q: And the GI50 (SNB-78)?
A: 1.94 µM (inactive)

Q: And the GI50 (XF498)?
A: 1.38 µM (inactive)

Q: `COC(=O)C1=C(C(=O)OC)C(C(=O)c2ccccc2)N2N=C(c3ccc(Cl)cc3)C=CC12` (stereo not given) was tested. Which GI50 (BT-549) did it give?
A: 2.09 µM (inactive)

Q: Which GI50 (BT-549) does the source give for `Cc1ccc(C(=O)C(Cl)C(Cl)c2ccc(C)cc2)cc1` (stereo not given) here?
A: 3.78 µM (inactive)

Q: What does the source list for `O=c1cc(-c2ccccc2)[nH]c2cc(F)cc(F)c12`?
A: GI50 (DLD-1): 28.5 µM (inactive); GI50 (DMS-273): 10.3 µM (inactive); GI50 (HOP-18): 43 µM (inactive); GI50 (M19-MEL): 31.6 µM (inactive)

Q: With `O=C(/C=C/c1ccc2c(c1)OCO2)CC(=O)C(=O)c1c[nH]c2ccccc12` as the molecule, how does the GI50 (BT-549) read?
A: 25.9 µM (inactive)

Q: How did the GI50 (BT-549) turn out when `CCCCN(c1ccccc1)c1ncnc2c1cnn2C` was run?
A: 20.3 µM (inactive)

Q: `COc1ccc(OC)c2c1C[C@@H]1C(C#N)N3[C@H](Cc4c(OC)ccc(OC)c4[C@@H]3C)C(=O)N1[C@H]2C` (stereo not given in full) was tested. Which GI50 (BT-549) did it give?
A: 1.97 µM (inactive)

Q: `CN(C)c1ccc2nc(CC(O)(C(F)(F)F)C(F)(F)F)ccc2c1` was tested. Which GI50 (BT-549) did it give?
A: > 10 µM (inactive)

Q: `O=C(CN1C(=O)CC(c2ccccc2)(c2ccccc2)C1=O)N1CCN(CCO)CC1` was tested. Which GI50 (BT-549) did it give?
A: > 100 µM (inactive)

Q: Which GI50 (BT-549) does the source give for `NC(=O)CN1C=CCC(C(N)=O)=C1` [CARICOTAMIDE] here?
A: > 100 µM (inactive)

Q: How did the GI50 (BT-549) turn out when `CNc1ccc(-c2nc3cc(C)ccc3o2)cc1` was run?
A: 45.8 µM (inactive)

Q: With `COC1=C2CC(C)CC(OC)C(OC(=O)CN)[C@H](C)/C=C(\C)C(OC(N)=O)C(OC)/C=C\C=C(/C)C(=O)NC(=CC1=O)C2=O` (stereo not given in full) as the molecule, how does the GI50 (BT-549) read?
A: 1.09 µM (active)

Q: Which results are given for `Cc1nc(C(N)=S)sc1C(=O)CC(=O)C(=O)Nc1c(C(C)C)cccc1C(C)C`?
A: GI50 (DLD-1): 55.2 µM (inactive); GI50 (HOP-18): 35.9 µM (inactive); GI50 (KM-20L2): 41.3 µM (inactive); GI50 (M19-MEL): 34.1 µM (inactive); GI50 (SNB-78): 66.2 µM (inactive); GI50 (XF498): 24.5 µM (inactive)

Q: For `CC(=O)Oc1ccc2cc(-c3ccc(OC(C)=O)c(OC(C)=O)c3)c(=O)oc2c1`, which GI50 (BT-549) is on record?
A: 42.3 µM (inactive)

Q: `CC(=O)NC1=C(C)C(=O)c2c(nc3n2CCC3O)C1=N` (stereo not given) was tested. Which GI50 (DLD-1) did it give?
A: 11.6 µM (inactive)

Q: What about the GI50 (DMS-273) of the same molecule?
A: 17.8 µM (inactive)

Q: And the GI50 (HOP-18)?
A: 17.6 µM (inactive)

Q: What about the GI50 (KM-20L2) of the same molecule?
A: 19.5 µM (inactive)

Q: And the GI50 (M19-MEL)?
A: 2.36 µM (inactive)

Q: And the GI50 (SNB-78)?
A: 3.05 µM (inactive)

Q: And the GI50 (XF498)?
A: 3.81 µM (inactive)

Q: Which GI50 (DMS-273) does the source give for `NC1CCCCC1.O=P(O)(O)C1(P(=O)(O)O)CC1` here?
A: > 100 µM (inactive)

Q: And the GI50 (KM-20L2)?
A: > 100 µM (inactive)

Q: And the GI50 (M19-MEL)?
A: > 100 µM (inactive)

Q: And the GI50 (SNB-78)?
A: > 100 µM (inactive)

Q: And the GI50 (XF498)?
A: > 100 µM (inactive)

Q: How did the GI50 (DMS-273) turn out when `CCCCCCCCCC(=O)OCC1OC(n2cc(F)c(=O)[nH]c2=O)C(N)C(OC(=O)CCCCCCCCC)C1O` (stereo not given) was run?
A: 20.4 µM (inactive)

Q: What about the GI50 (KM-20L2) of the same molecule?
A: 19 µM (inactive)

Q: What about the GI50 (M19-MEL) of the same molecule?
A: 17.4 µM (inactive)

Q: What about the GI50 (SNB-78) of the same molecule?
A: 15.8 µM (inactive)

Q: Which GI50 (DLD-1) does the source give for `CCOC(=O)C1=C(Nc2ccccc2)SCC1=O` here?
A: > 100 µM (inactive)

Q: What about the GI50 (DMS-273) of the same molecule?
A: > 100 µM (inactive)

Q: And the GI50 (KM-20L2)?
A: > 100 µM (inactive)

Q: What about the GI50 (M19-MEL) of the same molecule?
A: > 100 µM (inactive)

Q: What about the GI50 (RXF 631) of the same molecule?
A: > 100 µM (inactive)

Q: And the GI50 (SNB-78)?
A: > 100 µM (inactive)

Q: How did the GI50 (DLD-1) turn out when `O=C(CC1(O)C(=O)Nc2ccccc21)c1ccc(O)cc1O` (stereo not given) was run?
A: > 100 µM (inactive)

Q: What about the GI50 (DMS-273) of the same molecule?
A: > 100 µM (inactive)

Q: What about the GI50 (KM-20L2) of the same molecule?
A: > 100 µM (inactive)

Q: And the GI50 (M19-MEL)?
A: > 100 µM (inactive)

Q: What about the GI50 (SNB-78) of the same molecule?
A: > 100 µM (inactive)

Q: What about the GI50 (XF498) of the same molecule?
A: > 100 µM (inactive)

Q: How did the GI50 (BT-549) turn out when `O=C(/C=C/c1cc(F)ccc1F)OCCc1ccccc1` was run?
A: > 100 µM (inactive)

Q: `COc1ccc(/C(C)=N/OC(=O)c2c(-c3ccccc3Cl)noc2C)cc1CN1CCOCC1` was tested. Which GI50 (BT-549) did it give?
A: 22.2 µM (inactive)

Q: `O=C(O)c1cccc(S(=O)(=O)NCCO)c1` was tested. Which GI50 (BT-549) did it give?
A: > 100 µM (inactive)

Q: Which GI50 (DLD-1) does the source give for `O=C(O)/C=C/c1nc2ccccc2c(=O)o1` here?
A: > 100 µM (inactive)

Q: And the GI50 (DMS-273)?
A: > 100 µM (inactive)

Q: What about the GI50 (HOP-18) of the same molecule?
A: > 100 µM (inactive)

Q: What about the GI50 (KM-20L2) of the same molecule?
A: > 100 µM (inactive)

Q: And the GI50 (M19-MEL)?
A: > 100 µM (inactive)

Q: What about the GI50 (SNB-78) of the same molecule?
A: > 100 µM (inactive)

Q: `N#CC(C(=O)CCC(=O)Nc1cccc(C(F)(F)F)c1)c1ccccc1` (stereo not given) was tested. Which GI50 (DLD-1) did it give?
A: > 100 µM (inactive)

Q: What about the GI50 (DMS-273) of the same molecule?
A: > 100 µM (inactive)

Q: What about the GI50 (KM-20L2) of the same molecule?
A: > 100 µM (inactive)

Q: What about the GI50 (M19-MEL) of the same molecule?
A: > 100 µM (inactive)

Q: And the GI50 (SNB-78)?
A: > 100 µM (inactive)

Q: What about the GI50 (XF498) of the same molecule?
A: > 100 µM (inactive)

Q: For `CCN(CC)C(=O)Cc1[nH][nH]c(=O)c1C(=O)N(CC)CC`, which GI50 (DLD-1) is on record?
A: > 100 µM (inactive)

Q: What about the GI50 (DMS-273) of the same molecule?
A: > 100 µM (inactive)

Q: And the GI50 (HOP-18)?
A: > 100 µM (inactive)

Q: What about the GI50 (KM-20L2) of the same molecule?
A: > 100 µM (inactive)

Q: And the GI50 (M19-MEL)?
A: > 100 µM (inactive)

Q: And the GI50 (SNB-78)?
A: > 100 µM (inactive)

Q: And the GI50 (XF498)?
A: > 100 µM (inactive)
